For orientation: stoichiometry N means the number of molecules, sites or subunits per partner or assembly.

Experimental findings from paper PMC8342789, “Structural insights into a flavin-dependent dehalogenase HadA explain catalysis and substrate inhibition via quadruple π-stacking” (The Journal of Biological Chemistry, 2021) are described below.

Data set [1] concerns the target T1, HadA (Ralstonia pickettii, UniProt Q53008).
T1 construct: recombinant, E. coli plasmid hadAWT-pET-11a; homotetramer (dimer of dimers); residues 1-517 by domain borders
T1 sequence (Q53008 1-517): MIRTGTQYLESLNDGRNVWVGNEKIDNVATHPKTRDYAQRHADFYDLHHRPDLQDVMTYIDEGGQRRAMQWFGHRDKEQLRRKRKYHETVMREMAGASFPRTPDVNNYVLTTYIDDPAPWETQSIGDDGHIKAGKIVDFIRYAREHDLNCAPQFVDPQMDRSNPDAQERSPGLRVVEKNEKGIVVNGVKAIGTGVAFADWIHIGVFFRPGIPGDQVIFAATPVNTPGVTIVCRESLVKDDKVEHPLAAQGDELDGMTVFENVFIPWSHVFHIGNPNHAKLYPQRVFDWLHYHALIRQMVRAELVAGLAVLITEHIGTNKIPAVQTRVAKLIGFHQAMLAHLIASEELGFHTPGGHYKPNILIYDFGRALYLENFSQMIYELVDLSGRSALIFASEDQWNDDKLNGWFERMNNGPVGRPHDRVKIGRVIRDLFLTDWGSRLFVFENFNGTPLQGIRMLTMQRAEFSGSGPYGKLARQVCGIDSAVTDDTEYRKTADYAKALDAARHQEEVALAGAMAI
Put plainly: X-ray crystal structure, […] Å. The format is binding.

In data set [2] the target is T1, HadA. Put plainly: stopped-flow and HPLC of hydroquinone product. The format is biochemical. The conditions noted are these: 0.1-6.4 mM 4CP preincubated with enzyme; 25 μM FADH-; 20 mM Hepes pH 7.5; substrate inhibition by dead-end complex.
Data set [3] concerns the molecule itself. As to the kind of experiment: crystal structure; HadA (0.3 mM) mixed with FADH- (12 mM) and 4NP (12 mM) in an anaerobic glove box, incubated 2 h; microbatch at 25 °C, sodium citrate, PEG3350, 5% trifluoroethanol, 0.1 M Bis-Tris propane pH 6.5; data at 100 K; molecular replacement with apo-HadA (PDB 6JHM chain A).

Substitutions are numbered along the chain they refer to.

In the case of `O=[N+]([O-])c1ccc(O)cc1` [4-nitrophenol], in data set [1] (ternary complex with FADH-, active site of subunit A, second site at C/D dimer interface (two 4NP, quadruple π-stacking)), the “X-ray crystal structure, 2.3 Å” value is “only one 4NP molecule could be clearly seen in the expected pocket of subunit A”.
`Cc1cc2c(cc1C)N(C[C@H](O)[C@H](O)[C@H](O)COP(=O)(O)OP(=O)(O)OC[C@H]1O[C@@H](n3cnc4c(N)ncnc43)[C@H](O)[C@@H]1O)c1[nH]c(=O)[nH]c(=O)c1N2` [FADH^–]: the “X-ray crystal structure, 2.3 Å” value in data set [1] (ternary complex with 4NP) is “strong electron densities could be observed for all four FADH^– molecules”.
On to `Oc1ccc(Cl)cc1` [4-chlorophenol], for which the “stopped-flow and HPLC of hydroquinone product” value in data set [2] is on record as “increasing the 4CP concentration significantly altered the kinetics of the reaction”.

B1: wild-type HadA, flavin-dependent monooxygenase/dehalogenase component from Ralstonia pickettii (enzyme, UniProt Q53008 1-517, looked up)
chain: T1 sequence (Q53008 1-517)
notes: HadA monooxygenase of the had pathway, Ralstonia pickettii; each protomer is described as N-terminal domain (residues 1-146), beta-sheet domain (147-275) and C-terminal domain (276-517); also called HadAWT; HadA monooxygenase; source: plasmid hadAWT-pET-11a
Turning to B1, the “stoichiometry N” value in data set [3] turned out to be 4.

B2: HadA Phe441Val variant (enzyme)
chain: T1 sequence (Q53008 1-517) with F441V
notes: HadA monooxygenase, Ralstonia pickettii, with Phe441Val; same limits as the wild type (domains described over residues 1-517); source: site-directed mutagenesis of hadAWT-pET-11a
Consider B2, for which the binding result in data set [3] was “binds”.
